# Experimental data taken from US20230287051A1, “INHIBITORS OF COMPLEMENT FACTOR C3 AND THEIR MEDICAL USES” (ZP SPV 3 K/S, priority 2020, published 2023).
# Numbered stars: 1 amine (or outer) side, 2 acyl side, 3 side chain; on linkers, the order of the positions; unused ones are H or OH. Bridge positions count the residues as written; N and C are the ends. Square brackets hold non-standard residues; d marks the D form. Side chains are listed from the residue outwards. Peptide text beside a SMILES is read from it. * marks the point of attachment. Trp(1-Me) = Cn1cc(C[C@H](N)C(=O)O)c2ccccc21; C18 diacid = O=C(O)CCCCCCCCCCCCCCCCC(=O)*; C16 diacid = O=C(O)CCCCCCCCCCCCCCC(=O)*; γGlu = O=C(O)[C@H](CCC(=O)[*:2])N[*:1]; AEEA = NCCOCCOCC(=O)O; CH2 = C([*:1])[*:2]; Sar = CNCC(=O)O
# B1: Compound 25 (peptide)
# peptide: Ac-SEQAFCI[Trp(1-Me)]QDW[Sar]EHRCTEGE[AEEA][AEEA]K([γGlu-Gly-γGlu-C18 diacid])-NH2
# modifications: bridge 6-16 via methylene thioacetal (-S-CH2-S-)
# notes: Synthetic compstatin analogue; also called Comp No 25; comp 25
# B2: Compound 26 (peptide)
# peptide: Ac-SKQEFCI[Trp(1-Me)]QDW[Sar]EHRCTEGE[AEEA][AEEA]K([γGlu-Gly-γGlu-C18 diacid])-NH2
# modifications: bridge 6-16 via methylene thioacetal (-S-CH2-S-)
# notes: Synthetic compstatin analogue; also called Comp No 26
# B3: Compound 24 (peptide)
# peptide: Ac-ESEQVFCI[Trp(1-Me)]QDW[Sar]EHRCTEGE[AEEA][AEEA]K([γGlu-Gly-γGlu-C18 diacid])-NH2
# modifications: bridge 7-17 via methylene thioacetal (-S-CH2-S-)
# notes: Synthetic compstatin analogue; also called Comp No 24
# B4: Compound 23 (peptide)
# peptide: Ac-ESQVFCI[Trp(1-Me)]QDW[Sar]EHRCTEGE[AEEA][AEEA]K([γGlu-Gly-γGlu-C18 diacid])-NH2
# modifications: bridge 6-16 via methylene thioacetal (-S-CH2-S-)
# notes: Synthetic compstatin analogue; also called Comp No 23
# Assays:
# [1] = molecular target: T1, Human C3 (Homo sapiens, UniProt P01024); test: Affinity measurement by surface plasmon resonance with immobilized C3; settings: SPR, immobilized human C3, 25° C., 1:1 Langmuir binding model, n=>2
# T1 construct: purchased Complement tech A113c
# Procedure: (§1) Surface plasmon resonance (SPR) was used to characterize peptides with respect to their binding affinity (Kd) for C3.
# (§2) For interaction experiments, a multi-cycle experiment approach was used and performed using a BiacoreX100™ instrument (GE Healthcare) at 25° C. Peptides were injected in increasing concentration series (5 different concentrations and buffer reference) for 180 seconds at a flow rate of 30 μL/min in a buffer consisting of 50 mM Tris buffer at pH 7.4, with 150 mM NaCl and 0.05% Tween20. This was followed by a dissociation period for 10 min. The C3 surface was regenerated between runs by two consecutive injections of 3 M MgCl2 each for 45 seconds.
# (§3) Sensorgrams were double-referenced (reference surface, blanks) prior to analysis of the kinetic profiles by globally fitting data to a 1:1 Langmuir binding model to obtain association and dissociation rates for calculation of the equilibrium dissociation constant Kd (Table 3). Each peptide was tested at in at least 2 independent experiments.
# [2] = system: classical complement pathway; test: In vitro haemolysis assay (inhibition of classical complement pathway); type: cell-based; settings: human serum, sensitized sheep RBC, 30 minutes at 37° C., absorbance at 405 nm, n=>2; read-out: IC50, inhibition of hemolysis
# Procedure: The in vitro effect of some of the compounds described herein was assessed by measuring their inhibitory effect of the classical complement pathway in a haemolysis assay.
# Briefly, compounds described herein and reference compounds were dissolved in DMSO and diluted in Tris/Casein Assay Buffer (10 mM Tris, 145 mM NaCl, 0.5 mM MgCl2, 0.15 mM CaCl2, and 0.1% W/V casein, adjusted to pH 7.4) as 9-point serial dilutions in a 96-well plate. Sensitized sheep red blood cells (RBC) coated with rabbit anti-sheep erythrocyte antiserum (Complement Technology, Inc., TX, USA) were washed in Tris/asein Assay Buffer. 50 μL from each well of diluted compound was added to a 96-well plate containing 50 μL diluted human serum (Complement Technology, Inc., TX, USA) and incubated for 15 minutes at room temperature. The serum dilution factor was optimized for every serum batch to obtain 70-90% of maximal haemolysis using the protocol. Then 50 μL sensitized sheep RBCs were added to all wells ([…]).
# After 30 minutes of incubation at 37° C. with gentle agitation, the reaction was stopped by addition of 50 μL Tris STOP Buffer per well (10 mM EDTA, 10 mM Tris, 145 mM NaCl adjusted to pH 7.4). The RBCs were then removed by centrifugation and the resulting supernatant measured for hemolysis by absorbance at 405 nm.
# The response was normalized relative to a positive and negative control (vehicle) to calculate the IC50 (nM) from the concentration response curve using the 4-parameter logistic (4PL) nonlinear model for curve fitting (Table 2). All values are based on n=>2 independent determinations.
# [3] = molecular target: T2, Human C3 (Complement tech cat #A113c) (human, UniProt P01024 23-1663); test: SPR (Biacore X100, 25 C), human C3 amine-coupled on CM5 chip, peptide as analyte, 1:1 Langmuir fit
# T2 construct: Purified human C3 immobilised by amine coupling in the SPR assay; in the haemolysis assay the C3 is that of diluted human serum; Native C3 is a two-chain (beta and alpha) protein made from one precursor; also called complement factor C3
# T2 sequence (P01024 23-1663 limits assumed): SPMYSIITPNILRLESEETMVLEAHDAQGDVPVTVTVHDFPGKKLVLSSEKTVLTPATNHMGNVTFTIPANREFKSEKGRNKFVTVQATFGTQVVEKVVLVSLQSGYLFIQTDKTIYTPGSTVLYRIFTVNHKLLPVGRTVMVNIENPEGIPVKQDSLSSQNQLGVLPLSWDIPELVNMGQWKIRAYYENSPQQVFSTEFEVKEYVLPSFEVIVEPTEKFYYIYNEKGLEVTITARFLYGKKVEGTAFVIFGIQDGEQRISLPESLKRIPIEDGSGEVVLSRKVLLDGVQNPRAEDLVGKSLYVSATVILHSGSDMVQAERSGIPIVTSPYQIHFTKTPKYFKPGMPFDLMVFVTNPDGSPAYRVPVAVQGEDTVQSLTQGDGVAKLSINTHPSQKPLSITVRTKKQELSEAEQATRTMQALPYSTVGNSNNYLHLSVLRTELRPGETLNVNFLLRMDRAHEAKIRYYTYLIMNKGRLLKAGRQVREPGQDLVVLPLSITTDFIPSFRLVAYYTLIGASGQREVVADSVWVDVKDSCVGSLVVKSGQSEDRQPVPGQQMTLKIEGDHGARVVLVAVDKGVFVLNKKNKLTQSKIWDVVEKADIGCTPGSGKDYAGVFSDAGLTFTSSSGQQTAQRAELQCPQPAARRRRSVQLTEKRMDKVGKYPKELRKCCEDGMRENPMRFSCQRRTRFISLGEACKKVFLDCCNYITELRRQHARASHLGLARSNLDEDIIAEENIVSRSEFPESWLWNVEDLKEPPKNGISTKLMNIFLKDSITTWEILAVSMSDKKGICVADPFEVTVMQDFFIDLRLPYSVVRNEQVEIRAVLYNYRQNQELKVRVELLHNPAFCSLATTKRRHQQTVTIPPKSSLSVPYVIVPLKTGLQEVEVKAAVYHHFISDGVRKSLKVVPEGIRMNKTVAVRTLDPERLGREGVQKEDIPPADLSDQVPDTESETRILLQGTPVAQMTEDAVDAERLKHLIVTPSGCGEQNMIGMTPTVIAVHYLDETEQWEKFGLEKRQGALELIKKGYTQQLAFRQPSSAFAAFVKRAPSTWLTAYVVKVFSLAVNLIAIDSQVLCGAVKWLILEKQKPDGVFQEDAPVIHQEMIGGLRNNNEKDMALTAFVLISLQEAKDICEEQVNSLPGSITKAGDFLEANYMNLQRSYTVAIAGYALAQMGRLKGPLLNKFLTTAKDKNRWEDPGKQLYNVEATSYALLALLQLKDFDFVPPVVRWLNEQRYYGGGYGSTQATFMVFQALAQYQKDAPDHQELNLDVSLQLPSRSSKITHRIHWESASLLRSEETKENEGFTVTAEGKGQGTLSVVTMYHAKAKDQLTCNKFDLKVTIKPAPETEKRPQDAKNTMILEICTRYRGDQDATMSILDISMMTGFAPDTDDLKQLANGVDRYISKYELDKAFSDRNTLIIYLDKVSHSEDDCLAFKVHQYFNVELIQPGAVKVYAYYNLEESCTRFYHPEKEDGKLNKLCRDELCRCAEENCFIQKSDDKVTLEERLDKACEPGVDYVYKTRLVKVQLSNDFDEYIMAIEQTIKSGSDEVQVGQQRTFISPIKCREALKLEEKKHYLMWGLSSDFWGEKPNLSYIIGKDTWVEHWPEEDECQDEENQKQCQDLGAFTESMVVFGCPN
# Procedure: as §1
# as §2, with “min.” for “min. The C3 surface was regenerated between runs by two consecutive injections of 3 M MgCl2 each for 45 seconds.”
# as §3
# [4] = molecular target: T2, Human C3 (Complement tech cat #A113c); test: cell-based or functional assay
Molecule,Kd [1] [nM],IC50 [2] [nM],Kd [3] [nM],"IC50 [nM], in vitro inhibition of hemolysis (classical complement pathway; human serum, sensitized sheep RBC) [4] [nM]"
CC[C@H](C)[C@@H]1NC(=O)[C@@H](NC(=O)[C@H](Cc2ccccc2)NC(=O)[C@H](CCC(=O)O)NC(=O)[C@H](CO)NC(=O)CNC(=O)[C@H](CCC(=O)O)NC(=O)CCCCCCCCCCCCCCC(=O)O)CSCSC[C@@H](C(=O)N[C@H](C(=O)N[C@@H](CCC(=O)O)C(=O)NCC(=O)N[C@@H](CCC(=O)O)C(N)=O)[C@@H](C)O)NC(=O)[C@H](CCCNC(=N)N)NC(=O)[C@H](Cc2c[nH]cn2)NC(=O)[C@H](CCC(=O)O)NC(=O)CN(C)C(=O)[C@H](Cc2c[nH]c3ccccc23)NC(=O)[C@H](CC(=O)O)NC(=O)[C@H](CCC(N)=O)NC(=O)[C@H](Cc2cn(C)c3ccccc23)NC1=O [Compound 19] ({C16 diacid}-EGSEFCI[Trp(1-Me)]QDW[Sar]EHRCTEGE-NH2; linker 6-16 via CH2),19,< 250,,
"CC[C@H](C)[C@@H]1NC(=O)[C@@H](NC(=O)[C@H](Cc2ccccc2)NC(=O)[C@H](CCC(=O)O)NC(=O)[C@H](CO)NC(C)=O)CSCSC[C@@H](C(=O)N[C@H](C(=O)N[C@@H](CCC(=O)O)C(=O)NCCOCCOCC(=O)NCCOCCOCC(=O)N[C@@H](CCCCNC(=O)CC[C@H](NC(=O)CNC(=O)CC[C@H](NC(=O)CCCCCCCCCCCCCCCCC(=O)O)C(=O)O)C(=O)O)C(N)=O)[C@@H](C)O)NC(=O)[C@H](CCCNC(=N)N)NC(=O)[C@H](Cc2c[nH]cn2)NC(=O)[C@H](CCC(=O)O)NC(=O)CN(C)C(=O)[C@H](Cc2c[nH]c3ccccc23)NC(=O)[C@H](CC(=O)O)NC(=O)[C@H](CCC(N)=O)NC(=O)[C@H](Cc2cn(C)c3ccccc23)NC1=O [Compound 10, Ac-SEF[C(1)]I[1-Me-Trp]QDW[Sar]EHR[C(1)]TE[Peg3][Peg3]-K([17-Carboxy-heptadecanoyl][yGlu]G[yGlu])-NH2] (Ac-SEFCI[Trp(1-Me)]QDW[Sar]EHRCTE[AEEA][AEEA]K([γGlu-Gly-γGlu-C18 diacid])-NH2; linker 4-14 via CH2)",19,< 250,,
CC[C@H](C)[C@@H]1NC(=O)[C@@H](NC(=O)[C@H](Cc2ccccc2)NC(=O)[C@H](CCC(=O)O)NC(=O)[C@H](CO)NC(C)=O)CSCSC[C@@H](C(=O)N[C@H](C(=O)N[C@@H](CCC(=O)O)C(=O)NCC(=O)N[C@@H](CCC(=O)O)C(=O)NCCOCCOCC(=O)NCCOCCOCC(=O)N[C@@H](CCCCNC(=O)CC[C@H](NC(=O)CNC(=O)CC[C@H](NC(=O)CCCCCCCCCCCCCCCCC(=O)O)C(=O)O)C(=O)O)C(N)=O)[C@@H](C)O)NC(=O)[C@H](CCCNC(=N)N)NC(=O)[C@H](Cc2c[nH]cn2)NC(=O)[C@H](CCC(=O)O)NC(=O)CN(C)C(=O)[C@H](Cc2c[nH]c3ccccc23)NC(=O)[C@H](CC(=O)O)NC(=O)[C@H](CCC(N)=O)NC(=O)[C@H](Cc2cn(C)c3ccccc23)NC1=O [Compound 9] (Ac-SEFCI[Trp(1-Me)]QDW[Sar]EHRCTEGE[AEEA][AEEA]K([γGlu-Gly-γGlu-C18 diacid])-NH2; linker 4-14 via CH2),17,< 250,,
"CC[C@H](C)[C@@H]1NC(=O)[C@@H](NC(=O)[C@H](Cc2ccccc2)NC(=O)[C@@H](NC(=O)CNC(=O)[C@H](CO)NC(=O)[C@@H](N)CCC(=O)O)C(C)C)CSCSC[C@@H](C(=O)N[C@H](C(=O)N[C@@H](CCC(=O)O)C(=O)NCC(=O)N[C@@H](CCC(=O)O)C(=O)NCCOCCOCC(=O)NCCOCCOCC(=O)N[C@@H](CCCCNC(=O)CC[C@H](NC(=O)CNC(=O)CC[C@H](NC(=O)CCCCCCCCCCCCCCCCC(=O)O)C(=O)O)C(=O)O)C(N)=O)[C@@H](C)O)NC(=O)[C@H](CCCNC(=N)N)NC(=O)[C@H](Cc2c[nH]cn2)NC(=O)[C@H](CCC(=O)O)NC(=O)CN(C)C(=O)[C@H](Cc2c[nH]c3ccccc23)NC(=O)[C@H](CC(=O)O)NC(=O)[C@H](CCC(N)=O)NC(=O)[C@H](Cc2cn(C)c3ccccc23)NC1=O [Compound 29, H-ESGVF[C(1)]I[1-Me-Trp]QDW[Sar]EHR[C(1)]TEGE[Peg3][Peg3]-K([17-Carboxy-heptadecanoyl][yGlu]G[yGlu])-NH2] (H-ESGVFCI[Trp(1-Me)]QDW[Sar]EHRCTEGE[AEEA][AEEA]K([γGlu-Gly-γGlu-C18 diacid])-NH2; linker 6-16 via CH2)",15,< 100,,
"CC[C@H](C)[C@@H]1NC(=O)[C@@H](NC(=O)[C@H](Cc2ccccc2)NC(=O)[C@H](CCC(=O)O)NC(=O)[C@H](CO)NC(=O)CNC(=O)[C@H](CCC(=O)O)NC(C)=O)CSCSC[C@@H](C(=O)N[C@H](C(=O)N[C@@H](CCC(=O)O)C(=O)NCC(=O)N[C@@H](CCC(=O)O)C(=O)NCCOCCOCC(=O)N[C@@H](CCC(=O)O)C(=O)N[C@@H](CO)C(=O)N[C@@H](CCCCNC(=O)CC[C@H](NC(=O)CCCCCCCCCCCCCCCCC(=O)O)C(=O)O)C(N)=O)[C@@H](C)O)NC(=O)[C@H](CCCNC(=N)N)NC(=O)[C@H](Cc2c[nH]cn2)NC(=O)[C@H](CCC(=O)O)NC(=O)CN(C)C(=O)[C@H](Cc2c[nH]c3ccccc23)NC(=O)[C@H](CC(=O)O)NC(=O)[C@H](CCC(N)=O)NC(=O)[C@H](Cc2cn(C)c3ccccc23)NC1=O [Compound 20, Ac-EGSEF[C(1)]I[1-Me-Trp]QDW[Sar]EHR[C(1)]TEGE[Peg3]ES-K([17-Carboxy-heptadecanoyl][yGlu])-NH2] (Ac-EGSEFCI[Trp(1-Me)]QDW[Sar]EHRCTEGE[AEEA]ESK([γGlu-C18 diacid])-NH2; linker 6-16 via CH2)",19,< 250,,
B1,,,9.1,< 100
B2,,,11,< 100
B3,,,13,< 100
B4,,,14,< 100
